In US20120258980A1, “Antibacterial Agent for Drug-Resistant Bacteria, Method for Screening for Same, and Use of Same” (priority 2009, published 2012):
Values after ≈ are worked out from the molar mass of the structure shown. Where two headings read alike, the source gives them in different places.

Legend:
[1] = tested on: MRSA, CA-MRSA and MSSA of Staphylococcus aureus; assay: MIC measurement, Test Example 4 (MRSA, CA-MRSA and MSSA strains); assay type: cell-based; details: for MIC: Staphylococcus aureus
Outline: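 S. aureus strains (FDA209P control) grown overnight in TSB at 37° C, resuspended in CAMHB, adjusted to A578 0.3 and diluted 500-fold. Equal volume added to CAMHB with serial compound concentrations, incubated statically overnight at 37° C. MIC read visually as lowest concentration without turbidity.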

[2] = tested on: methicillin-susceptible S. aureus (MSSA), MRSA and mutants thereof; assay: MIC measurement, Test Example 3 (MSSA, MRSA and sequential gyrA/grlA quinolone-resistant mutants); assay type: cell-based, Staphylococcus aureus; details: for MIC: Staphylococcus aureus
Outline: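 Clinical isolates and stepwise gyrA/grlA quinolone-resistant mutants grown overnight at 37° C in TSB, adjusted to A578 0.3 in CAMHB, diluted 500-fold and mixed 1:1 with drug dilutions in CAMHB.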

[3] = tested on: Enterococcus faecalis; assay: MIC measurement, Test Example 6 (enterococcus); assay type: cell-based; details: Enterococcus faecalis, read-out: MIC
Outline: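 E. faecalis strains, including vancomycin-resistant NCTC12201 and NCTC12203, pre-grown overnight in TSB at 37° C, set to A578 0.3 in CAMHB, then diluted 500-fold.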

[4] = tested on: VISA clinical isolates of MRSA (VI-MRSA) and of MSSA (VI-MSSA); assay: microbe, parasite or virus in culture; assay type: cell-based, Staphylococcus aureus
Outline: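 Strains were grown overnight at 37° C in TSB, adjusted in CAMHB to 0.3 absorbance at 578 nm and diluted 500-fold before equal-volume addition to compound dilutions.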

## Cc1cc(=O)n(C)c2c3c4c(cc12)c(C)cc(=O)n4CO3 [DNM, deoxynybomycin]
[1]; ATCC 29213 / MRSA / MSSA, ATCC 29213, MSSA
  MIC: 16 µg/mL (≈ 56.7 µM)
[1]; COL, MRSA
  MIC: > 64 µg/mL
[1]; FDA209P / MRSA / MSSA, FDA209P, MSSA
  MIC: 8 µg/mL (≈ 28.3 µM)
[1]; ISA12-1, MRSA
  MIC: 32 µg/mL (≈ 113 µM)
[1]; ISA12-2, MRSA
  MIC: 16 µg/mL (≈ 56.7 µM)
[1]; ISA35-1, MRSA
  MIC: 64 µg/mL (≈ 227 µM)
[1]; ISA37-1, MSSA
  MIC: > 64 µg/mL
[1]; ISA49-1, MSSA
  MIC: 16 µg/mL (≈ 56.7 µM)
[1]; ISA51-1, MSSA
  MIC: 8 µg/mL (≈ 28.3 µM)
[1]; ISA56-3, MRSA
  MIC: > 64 µg/mL
[1]; ISA58-1, MRSA
  MIC: 8 µg/mL (≈ 28.3 µM)
[1]; ISA62-1, MRSA
  MIC: > 64 µg/mL
[1]; ISA73-1, MSSA
  MIC: > 64 µg/mL
[1]; KBSA32, MRSA
  MIC: 32 µg/mL (≈ 113 µM)
[1]; KBSA34, MRSA
  MIC: > 64 µg/mL
[1]; KBSA72, MRSA
  MIC: ≤ 0.063 µg/mL
[1]; KBSA96, MRSA
  MIC: ≤ 0.063 µg/mL
[1]; KBSA171, MRSA
  MIC: ≤ 0.063 µg/mL
[1]; KSA24, MRSA
  MIC: 0.125 µg/mL (≈ 0.443 µM)
[1]; KSA31, MRSA
  MIC: 0.25 µg/mL (≈ 0.886 µM)
[1]; KSA36, MRSA
  MIC: ≤ 0.063 µg/mL
[1]; MRSA / MSSA / NCTC 8325, NCTC 8325, MSSA
  MIC: > 64 µg/mL
[1]; MRSA / MSSA / USA300, USA300 FPR3757, CA-MRSA
  MIC: 0.125 µg/mL (≈ 0.443 µM)
[1]; MW2, CA-MRSA
  MIC: 64 µg/mL (≈ 227 µM)
[1]; N315, MRSA
  MIC: 32 µg/mL (≈ 113 µM)
[1]; against Staphylococcus aureus
  antibacterial activity, comparison between NM and DNM: higher than that of NM
[2]; MR5867-2, second-step mutant, further gyrA S84L
  MIC: ≤ 0.063 µg/mL
[2]; MR5867-3, third-step mutant, further grlA S80F
  MIC: ≤ 0.063 µg/mL
[2]; MR5867-4, fourth-step mutant, further gyrA E88K
  MIC: ≤ 0.063 µg/mL
[2]; MS5935-2, second-step mutant, further gyrA S84L
  MIC: 0.5 µg/mL (≈ 1.77 µM)
[2]; MS5935-3, third-step mutant, further grlA E84K
  MIC: 0.5 µg/mL (≈ 1.77 µM)
[2]; MS5952-2, second-step mutant, further gyrA S84L
  MIC: 0.5 µg/mL (≈ 1.77 µM)
[2]; MS5952-3, third-step mutant, further grlA A116V
  MIC: ≤ 0.063 µg/mL
[2]; Table 1-2 strains
  antibacterial activity, comparison between NM and DNM: higher than that of NM
[3]; E. faecalis 36-15672, quinolone-susceptible enterococci
  MIC: > 64 µg/mL
[3]; E. faecalis 36-15673, quinolone-susceptible enterococci
  MIC: > 64 µg/mL
[3]; E. faecalis 36-15678, quinolone-susceptible enterococci
  MIC: > 64 µg/mL
[3]; E. faecalis 36-15686, quinolone-resistant enterococci
  MIC: 2 µg/mL (≈ 7.08 µM)
[3]; E. faecalis 36-15688, quinolone-susceptible enterococci
  MIC: > 64 µg/mL
[3]; E. faecalis 36-15694, quinolone-resistant enterococci
  MIC: 2 µg/mL (≈ 7.08 µM)
[3]; E. faecalis 36-15696, quinolone-susceptible enterococci
  MIC: > 64 µg/mL
[3]; E. faecalis 36-15703, quinolone-resistant enterococci
  MIC: 0.25 µg/mL (≈ 0.886 µM)
[3]; E. faecalis 36-15716, quinolone-resistant enterococci
  MIC: 4 µg/mL (≈ 14.2 µM)
[3]; E. faecalis 36-15718, quinolone-susceptible enterococci
  MIC: 32 µg/mL (≈ 113 µM)
[3]; E. faecalis 36-15720, quinolone-susceptible enterococci
  MIC: > 64 µg/mL
[3]; E. faecalis 36-15722, quinolone-resistant enterococci
  MIC: 4 µg/mL (≈ 14.2 µM)
[3]; E. faecalis 36-15726, quinolone-resistant enterococci
  MIC: 2 µg/mL (≈ 7.08 µM)
[3]; E. faecalis 36-15730, quinolone-susceptible enterococci
  MIC: 64 µg/mL (≈ 227 µM)
[3]; E. faecalis 36-15736, quinolone-susceptible enterococci
  MIC: > 64 µg/mL
[3]; E. faecalis 36-15741, quinolone-susceptible enterococci
  MIC: > 64 µg/mL
[3]; NCTC 12201 / VRE, E. faecalis NCTC12201, vancomycin-resistant (VRE), quinolone-susceptible enterococci
  MIC: 16 µg/mL (≈ 56.7 µM)
[3]; NCTC 12203 / VRE, E. faecalis NCTC12203, vancomycin-resistant (VRE), quinolone-susceptible enterococci
  MIC: > 64 µg/mL
[4]; Staphylococcus aureus, 99/3700-W, VI-MRSA, The United Kingdom
  MIC: 0.25 µg/mL (≈ 0.886 µM)
[4]; Staphylococcus aureus, 99/3759-V, VI-MRSA, The United Kingdom
  MIC: 1 µg/mL (≈ 3.54 µM)
[4]; Staphylococcus aureus, 28160, VI-MRSA, South African Republic
  MIC: 0.125 µg/mL (≈ 0.443 µM)
[4]; Staphylococcus aureus, 98141, VI-MRSA, France
  MIC: 0.125 µg/mL (≈ 0.443 µM)
[4]; Staphylococcus aureus, A7 (JCSC4842), VI-MRSA, Taiwan
  MIC: ≤ 0.063 µg/mL
[4]; Staphylococcus aureus, AMC11094, VI-MRSA, Korea
  MIC: 0.125 µg/mL (≈ 0.443 µM)
[4]; Staphylococcus aureus, B7 (JCSC4852), VI-MRSA, Taiwan
  MIC: 0.125 µg/mL (≈ 0.443 µM)
[4]; Staphylococcus aureus, BR1, VI-MRSA, Brazil
  MIC: 0.25 µg/mL (≈ 0.886 µM)
[4]; Staphylococcus aureus, BR2, VI-MRSA, Brazil
  MIC: 0.125 µg/mL (≈ 0.443 µM)
[4]; Staphylococcus aureus, BR3, VI-MRSA, Brazil
  MIC: 0.125 µg/mL (≈ 0.443 µM)
[4]; Staphylococcus aureus, BR4, VI-MRSA, Brazil
  MIC: 0.25 µg/mL (≈ 0.886 µM)
[4]; Staphylococcus aureus, BR5, VI-MRSA, Brazil
  MIC: 0.25 µg/mL (≈ 0.886 µM)
[4]; Staphylococcus aureus, HIP06297, VI-MRSA, America
  MIC: 0.125 µg/mL (≈ 0.443 µM)
[4]; Staphylococcus aureus, HIP06854, VI-MRSA, America
  MIC: 0.5 µg/mL (≈ 1.77 µM)
[4]; Staphylococcus aureus, HIP07920, VI-MRSA, America
  MIC: 0.25 µg/mL (≈ 0.886 µM)
[4]; Staphylococcus aureus, HIP07930, VI-MRSA, America
  MIC: 0.5 µg/mL (≈ 1.77 µM)
[4]; Staphylococcus aureus, HIP08926, VI-MRSA, America
  MIC: 0.5 µg/mL (≈ 1.77 µM)
[4]; Staphylococcus aureus, HIP09143, VI-MRSA, America
  MIC: 0.5 µg/mL (≈ 1.77 µM)
[4]; Staphylococcus aureus, HIP09313, VI-MRSA, America
  MIC: 0.125 µg/mL (≈ 0.443 µM)
[4]; Staphylococcus aureus, HIP09433, VI-MRSA, America
  MIC: 0.5 µg/mL (≈ 1.77 µM)
[4]; Staphylococcus aureus, HIP09662, VI-MRSA, America
  MIC: 0.25 µg/mL (≈ 0.886 µM)
[4]; Staphylococcus aureus, HIP09735, VI-MRSA, America
  MIC: 0.5 µg/mL (≈ 1.77 µM)
[4]; Staphylococcus aureus, HIP09737, VI-MSSA, America
  MIC: 1 µg/mL (≈ 3.54 µM)
[4]; Staphylococcus aureus, HIP09740, VI-MRSA, America
  MIC: 0.25 µg/mL (≈ 0.886 µM)
[4]; Staphylococcus aureus, HIP10267, VI-MRSA, America
  MIC: 0.25 µg/mL (≈ 0.886 µM)
[4]; Staphylococcus aureus, HIP10540, VI-MRSA, America
  MIC: ≤ 0.063 µg/mL
[4]; Staphylococcus aureus, HIP12864, VI-MRSA, America
  MIC: 0.125 µg/mL (≈ 0.443 µM)
[4]; Staphylococcus aureus, HIP13036, VI-MRSA, America
  MIC: 0.25 µg/mL (≈ 0.886 µM)
[4]; Staphylococcus aureus, HIP13057, VI-MRSA, America
  MIC: 0.125 µg/mL (≈ 0.443 µM)
[4]; Staphylococcus aureus, IL (HIP7737), VI-MRSA, America
  MIC: 1 µg/mL (≈ 3.54 µM)
[4]; Staphylococcus aureus, JCSC7193, VI-MRSA, Thailand
  MIC: 0.33 µg/mL (≈ 1.17 µM)
[4]; Staphylococcus aureus, JCSC7195, VI-MRSA, Thailand
  MIC: 0.16 µg/mL (≈ 0.567 µM)
[4]; Staphylococcus aureus, JCSC7203, VI-MRSA, Thailand
  MIC: 0.16 µg/mL (≈ 0.567 µM)
[4]; Staphylococcus aureus, LIM2, VI-MRSA, France
  MIC: 0.25 µg/mL (≈ 0.886 µM)
[4]; Staphylococcus aureus, LY-1999-01, VI-MSSA, Oman
  MIC: ≤ 0.063 µg/mL
[4]; Staphylococcus aureus, LY-1999-03, VI-MRSA, Oman
  MIC: ≤ 0.063 µg/mL
[4]; Staphylococcus aureus, MI (HIP5827), VI-MRSA, America
  MIC: ≤ 0.063 µg/mL
[4]; Staphylococcus aureus, MRSA / MSSA / NRS 76 / VISA, NRS76, VI-MSSA, America
  MIC: ≤ 0.063 µg/mL
[4]; Staphylococcus aureus, MRSA / MSSA / NRS 79 / VISA, NRS79, VI-MRSA, America
  MIC: 1 µg/mL (≈ 3.54 µM)
[4]; Staphylococcus aureus, MRSA / MSSA / NRS 118 / VISA, NRS118, VI-MRSA, America
  MIC: 2 µg/mL (≈ 7.08 µM)
[4]; Staphylococcus aureus, MRSA / MSSA / NRS 126 / VISA, NRS126, VI-MRSA, America
  MIC: 0.5 µg/mL (≈ 1.77 µM)
[4]; Staphylococcus aureus, Mu3, VI-MRSA, Japan
  MIC: 0.5 µg/mL (≈ 1.77 µM)
[4]; Staphylococcus aureus, Mu50, VI-MRSA, Japan
  MIC: 0.25 µg/mL (≈ 0.886 µM)
[4]; Staphylococcus aureus, NJ (HIP5836), VI-MRSA, America
  MIC: 0.25 µg/mL (≈ 0.886 µM)
[4]; Staphylococcus aureus, P1V44, VI-MSSA, Belgium
  MIC: 0.5 µg/mL (≈ 1.77 µM)
[4]; Staphylococcus aureus, PC, VI-MRSA, America
  MIC: 0.125 µg/mL (≈ 0.443 µM)
[4]; Staphylococcus aureus, SA MER-S6, VI-MSSA, France
  MIC: > 64 µg/mL
[4]; Staphylococcus aureus, SA MER-S12, VI-MSSA, France
  MIC: > 64 µg/mL
[4]; Staphylococcus aureus, SA MER-S20, VI-MSSA, France
  MIC: > 64 µg/mL
